Laboratory results from patent US20250340543A1, “GPR84 ANTAGONISTS AND USES THEREOF” (Liminal BioSciences Limited, priority 2021, published 2025).

target: GPR84 (Homo sapiens (Human), UniProt Q9NQS5); experiment: Gai biosensor BRET assay (GPR84-mediated activation of Gai, antagonist mode against agonist ZQ-16); type: cell-based; details: HEK293 cells, 200 nmol/L GPR84 agonist ZQ-16, read-out: hGPR84 IC50
Text: Background—The following assays can be used for determination of GPR84 activation in living HEK293 cells. […] The Gai biosensor consists of a Rluc8-tagged Gαi2 subunit, a GFP10-tagged Gγ2 subunit, and an untagged Gβ1. […] Moreover, signaling functions of GPCRs are tightly regulated by endocytosis, the targeting of receptors to endosomes and their sorting to lysosomes or recycling to the plasma membrane. […] Agonist stimulation of GPR84—Rluc8 leads to trafficking of the receptor to EEs, and ensuing increase of the donor concentration relative to the rGFP-FYVE acceptor anchored in the same cellular compartment, and thus results in an increase in BRET signal.
Plasmids—The cDNA clones for human GPR84 receptor, human Gαi2, Gβ1, and Gγ2 were obtained from the cDNA Resource Center (www.cdna.org). GFP10 (F64L, S147P, S202F and H231L variant of Aequorea victoria Green Fluorescent Protein) gBlocks gene fragments (Integrated DNA Technologies, IA) and linker were inserted in frame at the N-terminus of human Gγ2. Rluc8 (A55T, C124A, S130A, K136R, A143M, M185V, M253L, and S287L variant of the Renilla renformis luciferase) gBlocks gene fragment was inserted with linkers in frame in between residues 91 and 92 of Gαi2 or at the C-terminus of GPR84. The FYVE domain from human endofin (residues Q739 to K806) attached in frame at the C terminus of a humanized Renilla GFP (rGFP), were synthesized as gBlocks gene fragments.
Bioluminescence Resonance Energy Transfer (BRET) Measurement—HEK293 cells were transfected with GPR84—Rluc8 and rGFP-FYVE for the EEs trafficking biosensor or with GPR84, Gαi2—Rluc8, GFP10-Gγ2, and Gβ1 for the Gai biosensor. The following day, transiently transfected cells were seeded in 96-well white clear bottom microplates coated with poly-D-lysine and left in culture for 24 hours. Cells were washed once with Tyrode's buffer (140 mmol/L NaCl, 1 mmol/L CaCl2, 2.7 mmol/L KCl, 0.49 mmol/L MgCl2, 0.37 mmol/L NaH2PO4, 5.6 mmol/L glucose, 12 mmol/L NaHCO3, and 25 mmol/L HEPES, pH 7.5) before performing assays in Tyrode's buffer. Test compounds were incubated with cells for 5 (Gai) or 15 (EEs) minutes at 37° C. before addition of 200 nmol/L of the GPR84 agonist ZQ-16 (2-(Hexylthio)-6-hydroxy-4(3H)-pyrimidinone) for 5 minutes at room temperature (Gai) or 30 minutes at 37° C. (EEs). The Rluc8 substrate coelenterazine 400A (Prolume, Lakeside, AZ) was added at a final concentration of […] and BRET readings were collected using an Infinite M1000 microplate reader (Tecan, Morrisville, NC). BRET^2 readings between Rluc8 and GFP10 or rGFP were collected by sequential integration of the signals detected in the 370 to 450 nm (Rluc8) and 510 to 540 nm (GFP10, rGFP) windows. The BRET signal was calculated as the ratio of light emitted by acceptor (GFP10, rGFP) over the light emitted by donor (Rluc8). The values were corrected to net BRET by subtracting the background BRET signal obtained in cells transfected with Rluc8 constructs alone. Ligand-promoted net BRET values were calculated by subtracting vehicle-induced net BRET from ligand-induced net BRET.

Sequence of GPR84 (Q9NQS5 whole entry): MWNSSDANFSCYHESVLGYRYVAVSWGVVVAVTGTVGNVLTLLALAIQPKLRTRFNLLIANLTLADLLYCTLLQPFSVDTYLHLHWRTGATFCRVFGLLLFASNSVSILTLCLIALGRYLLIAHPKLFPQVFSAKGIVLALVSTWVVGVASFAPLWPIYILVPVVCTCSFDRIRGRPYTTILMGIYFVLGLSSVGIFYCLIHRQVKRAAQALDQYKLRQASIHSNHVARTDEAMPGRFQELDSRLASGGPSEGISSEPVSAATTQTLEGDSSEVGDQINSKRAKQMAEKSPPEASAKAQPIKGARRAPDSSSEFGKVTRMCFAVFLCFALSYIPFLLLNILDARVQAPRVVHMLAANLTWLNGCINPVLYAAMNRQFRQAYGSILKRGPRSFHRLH

IC50, < 5 µM:
O=c1nc(OCC2COCCO2)cc2n1CCOc1cc(C#CC3CC3)ccc1-2 (stereo not shown) [Compound I-214]

IC50, > 25 µM:
O=C(CC1CCOCC1)N1Cc2ccc(C#CC3CC3)cc2C1 [Compound I-180]
O=C(CC1CCOCC1)N1CCc2cc(C#CC3CC3)ccc2C1 [Compound I-181]

IC50, 5 to 10 µM:
Cc1ccc(-c2ccc3c(c2)OCCn2c-3cc(OCC3COCCO3)nc2=O)cn1 (stereo not shown) [Compound I-211]

same assay, conditions: compound tested at 1 μM (concentration code A*)

Inhibition at 1 µM, < 25%:
O=C(NCC1CCCO1)N1CCc2cc(C#CC3CC3)ccc2C1 (stereo not shown) [Compound I-183]
O=C(NCC1CCCO1)N1Cc2ccc(C#CC3CC3)cc2C1 (stereo not shown) [Compound I-184]

same assay, conditions: compound tested at 5 μM (concentration code C)

Inhibition at 5 µM, < 25%:
COc1cc(OCC2COCCO2)cc(-c2ccc(OCC(F)(F)F)cc2)c1 (stereo not shown) [Compound I-166]
Cc1ccc(-c2ccc(-c3ccc4oc(=O)n(CC5CCCCO5)c4c3)cc2)cn1 (stereo not shown) [Compound I-168]
COc1ccc2c(-c3ccc(C#CC4CC4)cc3)nnn2c1 [Compound I-215]

same assay, conditions: compound tested at 10 μM (concentration code D)

Inhibition at 10 µM, > 75%:
Cc1cc(OC[C@H]2CCCCO2)cc(=O)n1[C@H](C)c1ccc(C#CC2CC2)cc1 [Compound I-145]

Inhibition at 10 µM, < 25%:
Cc1cc(OCC2COCCO2)cc(=O)n1Cc1cc(C#CC2CC2)ccc1F (stereo not shown) [Compound I-143]
Cc1cc(OCC2COCCO2)cc(=O)n1Cc1cccc(N2CC(C)(C)C2)c1 (stereo not shown) [Compound I-146]
Cc1cc(OCC2COCCO2)cc(=O)n1[C@H](C)c1ccc(C#CCNS(=O)(=O)C2CC2)cc1 (stereo partly shown) [Compound I-149]
COc1ccc2nc(-c3ccc(C#CC4CC4)cc3)cn2c1 [Compound I-216]
O=C(CC1CCOc2ccccc21)N1Cc2ccc(C#CC3CC3)cc2C1 (stereo not shown) [Compound I-217]
Cc1cc(OCC2COCCO2)cc(=O)n1C(C)c1ccc(C#CC2CC2)s1 (stereo not shown) [Compound I-220]
Cc1cc(OCC2COCCO2)cc(=O)n1[C@H](C)c1ccc(N2CC(C)(CO)C2)cc1 (stereo partly shown) [Compound I-224]
CC1(C)CN(c2cccc(Cn3ccc(OCC4COCCO4)cc3=O)c2)C1 (stereo not shown) [Compound I-228]

Inhibition at 10 µM, 25 to 50%:
O=C(CC1CCCCO1)N1CCc2cc(C#CC3CC3)ccc2C1 (stereo not shown) [Compound I-187]
COc1ccc([C@@H](C)n2c(C)cc(OCC3COCCO3)cc2=O)cc1 (stereo partly shown) [Compound I-218]
Cc1cc(OCC2COCCO2)cc(=O)n1C(C)c1cc(C#CC2CC2)cs1 (stereo not shown) [Compound I-221]
Cc1cc(OCC2COCCO2)cc(=O)n1-c1ccc(C#CC2CC2)cc1 (stereo not shown) [Compound I-225]

Inhibition at 10 µM, 50 to 75%:
CC#Cc1ccc([C@@H](C)n2c(C)cc(OCC3COCCO3)cc2=O)cc1 (stereo partly shown) [Compound I-219]
Cc1cc(OCC2COCCO2)cc(=O)n1-c1cccc(C#CC2CC2)c1 (stereo not shown) [Compound I-226]
Cc1cc(OCC2OCC(C)(C)CO2)cc(=O)n1[C@H](C)c1ccc(C#CC2CC2)cc1 [Compound I-227]

same assay, conditions: compound tested at 15 μM (concentration code F)

Inhibition at 15 µM, 25 to 50%:
O=C(CC1CCOCC1)N1CCc2cc(C#CC3CC3)ccc2C1 [Compound I-181]

Inhibition at 15 µM, < 25%:
FC(F)(F)COc1ccc(-c2cc(OCC3COCCO3)cc(C3CO3)c2)cc1 (stereo not shown) [Compound I-164]
COc1ccc(OCC2COCCO2)cc1Cc1ccc(C#CC2CC2)cc1 (stereo not shown) [Compound I-210]

same assay, conditions: compound tested at 25 μM (concentration code G)

Inhibition at 25 µM, < 25%:
COc1cc(OCC2COCCO2)cc(-c2c(C)cc(OCc3ccccc3)cc2C)n1 (stereo not shown) [Compound I-125]
Cc1cc(C#CC2CC2)ccc1-c1cc(OCC2COCCO2)n(C)c(=O)n1 (stereo not shown) [Compound I-126]
C(#CC1CC1)c1ccc(-c2nccc(OCC3CCCCO3)n2)cc1 (stereo not shown) [Compound I-127]
C(#CC1CC1)c1ccc(-c2ccnc(OCC3CCCCO3)n2)cc1 (stereo not shown) [Compound I-128]
FC(F)(F)COc1ccc(-c2cccc(OCC3CCCCO3)n2)cc1 (stereo not shown) [Compound I-129]
COc1cc(OCC2COCCO2)cc(-c2ccc(C#CCNc3ccccc3)cc2)n1 (stereo not shown) [Compound I-130]
COc1cnc(OCC2COCCO2)c(-c2ccc(OCC(F)(F)F)cc2)c1OC (stereo not shown) [Compound I-131]
Cc1ccc(-c2ccc(-c3nccc(OCC4CCCCO4)n3)cc2)cn1 (stereo not shown) [Compound I-133]
COc1cc(OCC2COCCO2)nc(-c2ccc(OCc3ccccn3)cc2C)n1 (stereo not shown) [Compound I-134]
C(#CC1CC1)c1ccc(-c2cc(OCC3CCCCO3)cnn2)cc1 (stereo not shown) [Compound I-135]
Cn1c(OCC2COCCO2)cc(-c2ccc(C#CC3CC3)cc2)nc1=O (stereo not shown) [Compound I-136]
CN1CCN(c2cc(OCC3COCCO3)nc(=O)n2C)CC1 (stereo not shown) [Compound I-137]
CC(=O)N1CCN(c2cc(OCC3COCCO3)nc(=O)n2C)CC1 (stereo not shown) [Compound I-138]
Cc1ccc(-c2ccc(-c3nc(OCC4COCCO4)cc(=O)[nH]3)cc2)cn1 (stereo not shown) [Compound I-139, 6-((1,4-dioxan-2-yl)methoxy)-2-(4-(6-methylpyridin-3-yl)phenyl)pyrimidin-4(3H)-one]
FC(F)(F)COc1ccc(-c2cc(OCC3COCCO3)cc3c2OCCO3)cc1 (stereo not shown) [Compound I-155]
COc1cc(OCC2COCCO2)cc(-c2ccc(OCC(F)(F)F)cc2)c1OC (stereo not shown) [Compound I-156]
COc1cc(OCC2COCCO2)cc(-c2ccc(OCC(F)(F)F)cc2)c1C (stereo not shown) [Compound I-157]
FC(F)(F)COc1ccc(-c2nc(OCC3COCCO3)cc3c2OCCO3)cc1 (stereo not shown) [Compound I-158]
FC(F)(F)COc1ccc(-c2c(OCC3COCCO3)ncc3c2OCCO3)cc1 (stereo not shown) [Compound I-159]
FC(F)(F)COc1ccc(-c2nc(OCC3COCCO3)cc3c2OCCC3)cc1 (stereo not shown) [Compound I-160]
FC(F)(F)COc1ccc(-c2cc(Cl)cc(OCC3COCCO3)c2)cc1 (stereo not shown) [Compound I-161]
CN(C)C(=O)c1cc(OCC2COCCO2)cc(-c2ccc(OCC(F)(F)F)cc2)c1 (stereo not shown) [Compound I-162]
FC(F)(F)COc1ccc(-c2cc(OCC3COCCO3)cc(C3COC3)c2)cc1 (stereo not shown) [Compound I-163]
FC(F)(F)COc1ccc(-c2cc(OCC3COCCO3)cc(C(F)(F)F)c2)cc1 (stereo not shown) [Compound I-165]
O=c1oc2ccc(-c3ccc(C#CC4CC4)cc3)cc2n1CC1CCCCO1 (stereo not shown) [Compound I-167]
O=c1oc2ccc(-c3ccc(C#CC4CC4)cc3)cc2n1CC1COCCO1 (stereo not shown) [Compound I-169]
C(#CC1CC1)c1ccc(Cc2cccc(OCC3COCCO3)c2)cc1 (stereo not shown) [Compound I-174]
Cc1ccc(-c2ccc(Cc3cccc(OCC4COCCO4)c3)cc2)cn1 (stereo not shown) [Compound I-176]
O=C(CC1COCCO1)N1Cc2ccc(C#CC3CC3)cc2C1 (stereo not shown) [Compound I-177]
Cc1ccc(-c2ccc3c(c2)CN(C(=O)CC2CCCCO2)C3)cn1 (stereo not shown) [Compound I-197]

Inhibition at 25 µM, 25 to 50%:
O=C(CC1CCCCO1)N1Cc2ccc(C#CC3CC3)cc2C1 (stereo not shown) [Compound I-186]
Cc1ccc(-c2ccc3c(c2)CCN(C(=O)CC2CCCCO2)C3)cn1 (stereo not shown) [Compound I-203]
O=c1nc(OCC2COCCO2)cc2n1CCOc1cc(Cl)ccc1-2 (stereo not shown) [Compound I-206]
Cc1ccc(-c2ccc3c(c2)OCCn2c-3cc(OCC3COCCO3)nc2=O)cn1 (stereo not shown) [Compound I-211]

Inhibition at 25 µM, 50 to 75%:
O=C(CC1CCOCC1)N1Cc2ccc(C#CC3CC3)cc2C1 [Compound I-180]

Inhibition at 25 µM, > 75%:
O=c1nc(OCC2COCCO2)cc2n1CCOc1cc(C#CC3CC3)ccc1-2 (stereo not shown) [Compound I-214]
